What all share (format): in vivo
Test [1] concerns HuCD34+ humanized NSG mice, 4 Gy to 4.5 Gy total body irradiation. Kind of test: Bone marrow cellularity, human CD45 positive cells and CFU-Cs in irradiated humanized mice given amifostine. To be noted: amifostine 200 mg/kg prior to 4.0 Gy or 4.5 Gy total body irradiation vs saline. As to the method: Bone marrow was harvested as per protocols described in Parmar et al. (Stem Cells 28:1186-1195, 2010). Briefly, animals were dissected to isolate the femurs and tibia from the mouse hind limb. The extracted bones were flushed with a 23-gauge needle using Hank's Balanced Salt Solution (HBSS, Life Technologies, Grand Island, N.Y.) supplemented with 2% fetal bovine serum (FBS) and 1% 10 mM HEPES (Life Technologies) to obtain bone marrow. The cells were then passed through an 18 gauge needle to obtain a single cell suspension. The bone marrow mononuclear cell count (BM-MNC) was determined by counting cells using 3% acetic acid with methylene blue solution (Stem Cell Technologies, Vancouver, British Columbia). For LKS (lineage, cKit, Sca-1) staining to visualize hematopoietic progenitor cells (HPCs) and hematopoietic stem cells (HSCs), whole bone marrow was stained with biotinylated anti-lineage cocktail (anti-Mac1, Gr-1, CD3e, B220, and Ter119), APC-conjugated anti-cKit (clone 2B8), and PECy7-conjugated anti Sca-1 (clone D7) antibodies. Following primary antibody staining, the cells were washed and incubated in PE-conjugated streptavidin secondary antibody to visualize lineage-positive cells. All primary and secondary antibodies were obtained from BD Biosciences (San Jose, Calif.). The samples were acquired using an LSR Fortessa instrument (Becton Dickinson, Franklin Lakes, N.J.) and data was analyzed using FlowJo software (TreeStar, Ashland, Oreg.).
To assess colony-forming ability, whole bone marrow isolated after flushing mouse femurs and tibiae was plated in 12-well plates at a density of 20,000 to 100,000 cells/well in methylcellulose medium (Methocult CF M3434, Stem Cell Technologies, Vancouver, British Columbia) containing recombinant murine IL-3, recombinant murine IL-6, and recombinant human erythropoietin. Cells from all samples were plated in triplicates and incubated at 37° C. in 5% CO2 for 7 days at which time hematopoietic colonies formed (colony-forming units in culture, CFU-Cs) were scored. […]

Test [2] concerns lethally-irradiated mice. Kind of test: Kaplan-Meier survival of mice given amifostine before lethal total body irradiation. Here is the method:
C57BL/6J male mice (10 weeks old) were obtained from Jackson Labs (Bar Harbor, Me.) and the mice were used in the experiments at an age of 12-13 weeks. Animals were exposed to total body irradiation in an irradiation pie cage (Braintree Scientific, Braintree, Mass.) at various doses. Irradiation was performed using a 137Cs source (Gamma Cell® 40 Exactor, Best Theratronics, Ottawa, Ontario).
Saline or amifostine was given to mice intraperitoneally at 250 mg/kg body weight 24 hours prior to 0 Gy- or 8 Gy-total body irradiation in a first set of experiments. In a second set of experiments, mice were left untreated or mice were administered saline or 200 mg/kg amifostine 45 minutes prior to 0 Gy- or 8.5 Gy-total body irradiation. Serum was collected from all mice at 24 hours after irradiation or a time point in the non-irradiated mice that would correspond to 24 hours after irradiation in the treated mice.
Validation with real-time qPCR: One-way ANOVA was used to confirm global significance. Dunnett's post-hoc testing procedure was used to compare miRNA levels in the irradiated+saline-group against three other experimental groups. Univariate comparisons were performed using the Student's t-test or the Student's t-test for paired samples. Pearson's correlation coefficient was used for correlation testing. Survival analysis was performed using the log-rank (Mantel-Cox) test.

For test [3], the system named is HuCD34+ humanized NSG mice, 4 Gy to 4.5 Gy total body irradiation. The test is described as follows: Peripheral blood CBC at euthanasia in irradiated humanized mice given amifostine. Conditions: TBI + Amifostine. As to the method:
Blood collection for CBCs (100 μL) was performed by retro-orbital bleeding after anesthesia in EDTA-coated tubes (BD Biosciences, San Jose, Calif.). CBCs were recorded with a Hemavet 950 FS hematology analyzer (Drew Scientific, Dallas, Tex.).
HuCD34^+ “humanized” NSG mice were obtained from Jackson Labs, Bar Harbor, Me. These mice were generated by irradiating each mouse at 1.4 Gy to deplete their bone marrow and injecting each mouse with CD34^+ human HSC. Each mouse was tested for engraftment of human CD45^+ cells and murine CD45^+ cells at 12 weeks following transplantation. Prior to the experiments described herein, the presence of human CD45^+ cells was confirmed in the peripheral blood and bone marrow from untreated control mice using an anti-human CD45 FITC antibody.
The HuCD34^+ mice were treated with saline or amifostine (200 mg/kg of body weight 45 min-1 hr before radiation exposure) and were subsequently treated with 4 Gy to 4.5 Gy of total body irradiation, or were left untreated. Following these treatments, total bone cellularity and the levels of serum miRNAs were determined in the mice. Both CD45 staining of peripheral blood and engraftment analysis of bone marrow was performed when animals became moribund (between 9-14 days after total body radiation) and were sacrificed. The mice were irradiated at approximately 12 weeks after initial assessment of engraftment.

The test system of test [4] is serum miRNAs miR-187-3p, miR-194-5p, miR-27a-3p, miR-30a-3p, miR-30c-5p. Kind of test: Serum miRNA levels (qPCR) in mice given amifostine before total body irradiation. To be noted: amifostine 250 mg/kg 24 hours prior to 0 Gy or 8 Gy-total body irradiation; sera 24 hours post-irradiation. As to the method:
Peripheral blood was collected by retro-orbital bleeding after anesthesia. Up to 200 μL of blood was collected in DNAse/RNAse-free Eppendorf tubes and incubated at room temperature for 2 hours to allow clotting. Blood samples were then centrifuged in an Eppendorf 5415C centrifuge at 14000 RPM (15996 g) for 5 minutes at room temperature.
Total RNA was isolated from serum samples by using the miRCURY™ RNA Isolation Kit—Biofluids from 50 μL mouse serum as per the manufacturer's manual. […] Total RNA was eluted in 50 μL of RNAse-free H2O and stored at −80° C. Per the manufacturer's recommendations, input volumes for serum RNA were optimized for the cDNA synthesis reaction. cDNA was synthesized in 10 μL reactions using the Universal cDNA Synthesis Kit II and was diluted 50-fold in RNAse/DNAse-free H2O for use in quantitative PCR. The reagents for RNA extraction and cDNA synthesis were obtained from Exiqon (Vedbaek, Denmark).
Diluted cDNA was subjected to quantitative PCR analysis in Pick-N-Mix plates designed in a 96-well format. […] All reagents used for quantitative PCR were obtained from Exiqon (Vedbaek, Denmark). […]
(In general: In qPCR the cycle at which signal appears reflects the starting amount.)

Where “and” joins values, the source holds several entries; their conditions need not be identical. Equal entries are not always repeated.

In the case of `NCCCNCCSP(=O)(O)O` [amifostine], in test [1], the “number of CFU-Cs” value is listed as “increase”, the “number of human CD45 positive cells in the bone marrow” value is on record as “increase” and the “total bone marrow cellularity” value is recorded as “increase”. Also, the survival entry in test [2] (amifostine 200 mg/kg 45 minutes prior to 8.5 Gy-total body irradiation vs saline) is “prolonged survival”. The molecule also showed an improvement in survival in test [2] (amifostine 250 mg/kg intraperitoneally 24 hours prior to 8 Gy-total body irradiation vs saline, n=8 per group, p=0.0452) of 50%. In test [3] (group Avg), the “HCT, CBC at euthanasia” value amounted to 10.93%; the “Hb, CBC at euthanasia” value was 4.27 g/dL; the “PLT, CBC at euthanasia” value was determined as 104.33 K/uL; the “RBC, CBC at euthanasia” value was 2.37 M/uL. Moreover, in test [3] (group Avg), the “WBC, CBC at euthanasia” value came out at 1.22 K/uL. Further, in test [3] (individual mice (# 8, 9, 13)), the “HCT, CBC at euthanasia” value was 17.00% and 11.00% and 4.80%; the “Hb, CBC at euthanasia” value was 4.80 g/dL (2×) and 3.20 g/dL; the “PLT, CBC at euthanasia” value was 213 K/uL and 44 K/uL and 56 K/uL; the “RBC, CBC at euthanasia” value is 2.55 M/uL and 1.65 M/uL and 2.92 M/uL. The “WBC, CBC at euthanasia” value in test [3] (individual mice (# 8, 9, 13)) is 1.28 K/uL and 1.19 K/uL and 1.20 K/uL. For the same molecule, the “serum miRNA signature response to treatment” value in test [4] was “responded to amifostine treatment only in the context of lethal radiation”.

For the origin of these results see US10801065B2, “Methods of determining levels of exposure to radiation and uses thereof” (priority 2015, dated 2020).
